Entries after “also recorded” stand apart in the source; their conditions may differ.
Experiments:
[1] = system: rat hepatic stellate cells (rHSC); experiment: Collagen production by immortalized rat hepatic stellate cells (14C-proline pulse, phosphorimager); type: cell-based; conditions: for collagen production, % of control: n=4; for effect of antagonist on CGS-21680-mediated increase in collagen production (in words): rHSC, CSC 10 micro-M, preincubation four hours
Description: To determine whether an increase in adenosine release would promote collagen production, immortalized rat hepatic stellate cells (rHSC, gift from Dr. S. L. Friedman) were incubated with agonists and antagonists at various adenosine receptors, after which collagen production was quantitated. Rat hepatic stellate cells were treated with […] at various concentrations with or without the addition of 10 micro-M adenosine A2A receptor antagonist CSC following pulsing with ^14C-proline. The collagen was extracted by ethanol precipitation and quantified following phosphorimager exposure.
The cAMP/protein kinase A pathway is known to mediate adenosine A2A receptor signal transduction. The effect of protein kinase A inhibition was studied on CGS-21680-mediated collagen production in rHSC. Rat HSC were treated with 10 micromolar CGS-21680 for four hours at 37° C., 5% CO2, with or without the addition of 10 micromolar KT-5720, a protein kinase A inhibitor, and collagen production was extracted by ethanol precipitation and quantified following phosphoimager exposure.

[2] = system: human hepatic stellate cells (LX-1); experiment: Collagen production by immortalized human hepatic stellate cells; type: cell-based
Description: Since A2A receptor selectivity of CGS-21680 decreases with increasing concentration, and recruitment of A2B receptor activity is observed with CGS-21680 concentrations above 100 nM, agonistic effects in A2B receptors by high-dose CGS-21680 is likely to be responsible for the decrease in collagen production. This is consistent with Dubey's observations on cardiac fibroblasts that adenosine A2B receptor activation decreases collagen synthesis, Dubey et al., Hypertension 1998; 31(4):943-8. Alternatively, CGS-21680-induced changes in collagen production may be the result of alterations in the expression of collagenase/metalloproteinases (MMP) or their inhibitors, tissue inhibitors of metalloproteinases, TIMP. Adenosine, acting through one of its receptors, most likely the A2B receptor, has been noted to alter metalloproteinase expression (Boyle et al., Arthritis Rheum 1996:39(6):923-30.

HepG2 cells = experiment: Adenosine release from HepG2 cells, quantitated by HPLC; conditions: for effect on adenosine release (in words): pharmacologically relevant concentrations, ethanol up to 80 mg/dl

CCNC(=O)[C@H]1O[C@@H](n2cnc3c(N)nc(NCCc4ccc(CCC(=O)O)cc4)nc32)[C@H](O)[C@@H]1O [CGS-21680]
collagen production, % of control ([1]; 10 micromolar CGS-21680 alone, four hours): 339±99 % of control
increase in collagen production over control ([1]; concentration of 10 mM as printed, n=6, p<0.001): 3223±917%
EC50 ([1]; cultured rat stellate cell line, dose-dependent, read-out: EC50 for promotion of collagen synthesis and release): ~300 nM
maximal promotion of collagen synthesis and release ([1]; cultured rat stellate cell line, p<0.004): ≤ 20 fold
effect on collagen production (in words) ([2]; CGS-21680 concentrations above 100 nM): collagen production by LX-1 decreases
effect on collagen production (in words) ([2]; CGS-21680 concentrations up to 100 nM, dose dependent): increased collagen production

Cn1c(=O)c2c(nc(C=Cc3cccc(Cl)c3)n2C)n(C)c1=O [CSC, 8-(3-chlorostyryl)-caffeine]
effect of antagonist on CGS-21680-mediated increase in collagen production (in words) [1]: almost completely blocks; also recorded: almost completely abrogated
effect of antagonist on CGS-21680-induced collagen production (in words) [2]: blocked by CSC

CCCn1c(=O)c2[nH]c(C3CCCC3)nc2n(CCC)c1=O [DPCPX, 8-cyclopentyldipropylxanthine]
effect of antagonist on CGS-21680-mediated increase in collagen production (in words) [1]: little effect; also recorded: minimal inhibitory effects

CCCCCCOC(=O)[C@]1(O)C[C@@H]2O[C@@]1(C)n1c3ccccc3c3c4c(c5c6ccccc6n2c5c31)C(=O)NC4 [KT-5720]
collagen production, % of control ([1]; 10 micromolar CGS-21680 plus 10 micromolar KT-5720, four hours): 181±69 % of control
suppression of the CGS-21680-mediated increase in collagen production ([1]; 10 micromolar KT-5720 with 10 micromolar CGS-21680, four hours, n=4, p<0.013): 47%

CCCn1c(=O)[nH]c(=O)c2[nH]cnc21 [enprofylline]
effect of antagonist on CGS-21680-mediated increase in collagen production (in words) [1]: little effect; also recorded: minimal inhibitory effects

CCO [ethanol]
increase in adenosine release from control (HepG2 cells; ethanol 40 mg/dl, three hours): four-fold
adenosine release (HepG2 cells; ethanol 40 mg/dl, three hours, n=6, p<0.001 vs control 37±35 nM): 206 ± 79 nM
toxicity to HepG2 cells (HepG2 cells; ethanol concentrations greater than 80 mg/dl): toxic to HepG2 cells
effect on adenosine release (in words) (HepG2 cells): increased adenosine release; also recorded: promote adenosine release
effect of ethanol on adenosine release from methotrexate-treated HepG2 cells (HepG2 cells; relevant concentrations of methotrexate, data not shown): further increased adenosine release

CN(Cc1cnc2nc(N)nc(N)c2n1)c1ccc(C(=O)N[C@@H](CCC(=O)O)C(=O)O)cc1 [methotrexate]
increase in adenosine release vs control (HepG2 cells; methotrexate 10 nM, three hours): six-fold
adenosine release (HepG2 cells; methotrexate 10 nM, three hours, n=6, p<0.001 vs control 41±39 nM): 242 ± 82 nM
effect on adenosine release (in words) (HepG2 cells): increased adenosine release; also recorded: promotes adenosine release

From patent US6555545B2, “Adenosine A2A receptor antagonists for treating and preventing hepatic fibrosis, cirrhosis and fatty liver” (New York University, priority 2000, dated 2003)
